The target in assay [1] is FAP Cyno Plasma (Macaca fascicularis, UniProt A0A2K5VGH4). Description: FAP plasma inhibition assay, cynomolgus plasma. Type of assay: biochemical. Particulars: cynomolgus plasma dilution 1:40. As to the method: Plasma (anticoagulant K2EDTA) was used as the enzyme source: Human plasma (Pooled from AZ Biobank), Mouse plasma (AZ AST Biobank), and Cynomolgus plasma (BioIVT, #NHP00PLK2FNN, lot CYN222895). 384-Well black fluotrack PS plates (Greiner 781076) were used. 20 μL diluted plasma (Cynomolgus and Human plasma dilution 1:40, Mouse plasma dilution 1:67) in buffer (PBS, 0.1% BSA) was added to 0.6 μL compounds (in DMSO). Compounds were tested using 10 CR, 3-fold dilution series from 500 nM FAC. Two replicates for each assay point were run on the same plate. A fluorescence blank read was taken before substrate addition. […] Plates were incubated for 40 min at rt in the dark. […] IC50 values were determined by plotting % inhibition versus log compound concentration.
Chain of FAP Cyno Plasma (A0A2K5VGH4 1-745): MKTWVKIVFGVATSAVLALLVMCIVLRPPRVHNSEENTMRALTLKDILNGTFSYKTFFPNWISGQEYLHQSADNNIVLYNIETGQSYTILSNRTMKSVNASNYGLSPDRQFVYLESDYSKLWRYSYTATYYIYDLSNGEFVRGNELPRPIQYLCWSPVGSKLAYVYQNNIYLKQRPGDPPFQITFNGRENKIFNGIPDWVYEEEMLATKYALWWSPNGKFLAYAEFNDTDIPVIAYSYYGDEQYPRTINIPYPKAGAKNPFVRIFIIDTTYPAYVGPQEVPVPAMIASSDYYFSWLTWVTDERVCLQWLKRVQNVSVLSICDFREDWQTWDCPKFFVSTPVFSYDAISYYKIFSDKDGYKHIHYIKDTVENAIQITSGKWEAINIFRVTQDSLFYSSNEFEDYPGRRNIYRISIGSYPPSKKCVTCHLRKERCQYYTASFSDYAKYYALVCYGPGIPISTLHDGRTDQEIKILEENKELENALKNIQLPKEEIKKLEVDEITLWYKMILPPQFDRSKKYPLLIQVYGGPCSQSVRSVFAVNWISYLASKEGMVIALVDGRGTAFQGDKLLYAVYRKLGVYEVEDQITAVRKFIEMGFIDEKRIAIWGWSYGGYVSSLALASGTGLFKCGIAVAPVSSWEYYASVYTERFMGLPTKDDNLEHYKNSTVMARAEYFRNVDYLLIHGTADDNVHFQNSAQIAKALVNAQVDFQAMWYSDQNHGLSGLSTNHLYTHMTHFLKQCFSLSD

Assay [2] deals with hFAP (M39-A757) (Homo sapiens (Human), UniProt Q12884). The experiment in a line: hFAP binding assay (surface plasmon resonance). Particulars: SPR, 20° C.
Chain of hFAP (M39-A757) (Q12884 39-757): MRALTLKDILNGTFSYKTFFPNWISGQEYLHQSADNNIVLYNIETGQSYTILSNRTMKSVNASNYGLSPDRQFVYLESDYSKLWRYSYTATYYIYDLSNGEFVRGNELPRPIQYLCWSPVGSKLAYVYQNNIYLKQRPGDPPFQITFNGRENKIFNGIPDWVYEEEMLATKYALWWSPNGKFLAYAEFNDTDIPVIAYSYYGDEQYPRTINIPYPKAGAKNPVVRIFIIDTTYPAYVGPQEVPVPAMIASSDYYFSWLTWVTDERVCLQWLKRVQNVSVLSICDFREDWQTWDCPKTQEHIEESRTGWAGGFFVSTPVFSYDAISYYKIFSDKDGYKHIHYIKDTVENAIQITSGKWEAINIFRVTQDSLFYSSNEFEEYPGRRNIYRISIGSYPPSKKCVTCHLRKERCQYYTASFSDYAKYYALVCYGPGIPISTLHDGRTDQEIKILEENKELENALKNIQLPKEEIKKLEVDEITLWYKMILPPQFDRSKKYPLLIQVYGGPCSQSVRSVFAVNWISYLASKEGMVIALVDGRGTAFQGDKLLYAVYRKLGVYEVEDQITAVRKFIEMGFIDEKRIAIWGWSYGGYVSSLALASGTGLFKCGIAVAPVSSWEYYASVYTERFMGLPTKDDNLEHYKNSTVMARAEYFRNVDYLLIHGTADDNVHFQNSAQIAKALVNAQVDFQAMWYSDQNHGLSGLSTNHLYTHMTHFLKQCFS
Procedure: The hFAP protein used in the Examples was either commercially sourced or produced in insect cells as recombinant hFAP (Gp67-6HN-TEV-FAP (M39-A757), MW 89086.7 Da, or cd33-FAP (27-757)-6His, MW85926 Da).
Immobilization of hFAP (M39-A757) on a CMD200M sensor chip (Xantec) was performed using standard amine coupling procedure in immobilization buffer (10 mM HEPES, 150 mM NaCl, 0.05% Tween20, pH 7.4). The surface was washed with 10 mM NaOH, IM NaCl before being activated with EDC/NHS (GE Healthcare), followed by immobilization of hFAP (in 10 mM Acetate pH 5.0). Finally, the surface was deactivated by ethanolamine. Immobilization levels of hFAP were around 4000-6000 RU. The reference spot was treated as described, omitting the injection of hFAP. Compound concentration series were injected over the immobilized protein in increasing concentrations (2-500 nM) using single cycle kinetics in running buffer (20 mM TRIS, 150 mM NaCl, 0.05% Tween20, 1% DMSO, pH 7.4). Interaction models were fitted globally to the experimental traces, enabling determination of kon, koff and Kd.

Molecules are shown by their SMILES.

The values below come from US20250368637A1, “SOLID-STATE FORMS OF N-(2-(4-CYANOTHIAZOLIDIN-3-YL)-2-OXOETHYL)-6-MORPHOLINOQUINOLINE-4-CARBOXAMIDE” (AstraZeneca AB, priority 2022, published 2025).

Take `N#C[C@@H]1CSCN1C(=O)CNC(=O)c1ccnc2ccc(N3CCOCC3)cc12` [(R)—N-(2-(4-Cyanothiazolidin-3-yl)-2-oxoethyl)-6-morpholinoquinoline-4-carboxamide]: the 50% inhibitory concentration (IC50) in assay [1] amounted to 0.4 nM. Further, in assay [2], the “hFAP Binding assay k(off)” value is recorded as “k(off) = 0.000046 1/s^3” and the “hFAP Binding assay k(on)” value was “k(on) = 4900000 M^−1s^−1”.
